A short description of data set [1]: In vitro stability in human serum (intact radiopeptide by radio-HPLC). It is filed as in vitro ADME. To be noted: fresh human serum, 37 °C, n = 2. How it is done:
In vitro stability studies were performed in human serum (n = 2). The radiolabeled peptides (1000 pmol/mL) were incubated at 37 °C and a sample of 100 μL was taken at 1, 4, and 24 h after incubation. After the precipitation of proteins with ACN at 1:1.5 (v/v), centrifugation (14,000 rpm, 2 min, centrifuge 5424, Eppendorf AG, Germany) and dilution with water at 1:1 (v/v), an aliquot of 100 μL of this solution was analyzed by HPLC. Radioligand breakdown was monitored and the percentage of intact radiopeptide was calculated using Chromeleon Dionex Software (Version 7.2.9.11323). Additionally, the radiolabeled peptides (1000 pmol/mL) were incubated in PBS (n = 1) at room temperature to confirm the complex stability as a control.

Data set [2] in a line: Biodistribution in BALB/c nude mice bearing A431-CCK2R/A431-mock xenografts. The conditions noted are these: female, athymic BALB/c nude, mouse, iv, 20 pmol, total radioactivity, ~20 pmol, 4 h p.i. (indium-111 or lutetium-177), mean ± SD n = 4; for tissue to tissue ratio at 4 h: BALB/c nude mice; for tissue uptake at 4 h: xenografted BALB/c nude mice, i.v. It is filed as in vivo. How it is done: The overall biodistribution and tumor targeting properties of selected radiolabeled peptides were evaluated in female athymic BALB/c nude mice (Charles River, Sulzfeld, Germany, age of 7 to 9 weeks). After tumor induction with 2 × 10^6 A431-CCK2R or A431-mock cells (subcutaneously injected in 200 μL DMEM into the right and left flank) and a waiting period of 10–14 days (sufficient to achieve tumors of ∼0.25 g), mice were randomly divided into groups of four and treated with a bolus injection of 150 µL of the injectable solution containing the radiolabeled peptide via a lateral tail vein to achieve an injected radioactivity of 150–200 kBq and a total injected peptide amount of ~20 pmol (n = 4 for each radiopeptide). For DOTA-[(N-Me)1Nal^8]MGS5, additional biodistribution studies were performed with gallium-68 (~0.5 MBq, 20 pmol) and lutetium-177 (~0.5 MBq, 20 pmol). The animals were euthanatized by cervical dislocation at 1 h (gallium-68) or 4 h p.i. (indium-111/ lutetium-177). The tumors and other tissues (blood, lung, heart, muscle, spleen, intestine, liver, kidney, stomach, and pancreas) were dissected, weighed, and the radioactivity measured in the γ-counter. The rest of the body and a standard of the solution injected was also measured together with the collected samples. The percentage of injected activity per gram of tissue (% IA/g) and the tumor-to-organ activity ratio of selected tissues were calculated for each mouse and time point studied. Origin software (Microcal Origin 6.1, Northampton, MA, USA) was used for statistical analysis (independent t-test for two populations; significance level p < 0.05).

Data set [3] can be described thus: Metabolic studies in BALB/c mice (intact radiopeptide by radio-HPLC). To be noted: i.v., 2 nmol, 10 min p.i., two animals per peptide; for Intact radiopeptide in kidney: kidney homogenate; for Intact radiopeptide in liver: liver homogenate. It is filed as in vivo. How it is done:
All animal experiments were approved by the Austrian Ministry of Science (BMWF-66.011/0075- WF/V/3b/2016) and performed in accordance with the Austrian Animal Protection Act. Metabolic studies characterizing the stability of selected radioligands against enzymatic degradation were carried out in 7 to 8 week old female BALB/c mice (Charles River, Sulzfeld, Germany). The mice (two animals for each peptide) were intravenously injected into a lateral tail vein with 5–10 MBq of the ^111In-labeled peptide derivatives, corresponding to 2 nmol total peptide. At the time point of 10 min p.i. the animals were euthanatized by cervical dislocation. A sample of urine and blood was immediately collected. Liver and kidneys were dissected, mixed with 20 mM HEPES buffer pH 7.3 (1:1, w/v) and homogenized using an Ultra-Turrax T8 homogenizer (IKA-Werke, Staufen, Germany) for 1 min. All samples taken were analyzed by analytical HPLC using the low-sensitivity loop for urine and the high-sensitivity loop for blood, liver and kidney. Before injection into the HPLC system, all samples except urine were treated with ACN and diluted with water as described for stability studies in human serum. The percentage of intact radiopeptide in the analyzed samples was calculated by integration of the different peaks found in the radiochromatogram using Chromeleon Dionex Software (Version 7.2.9.11323).

A short description of data set [4]: Binding to serum proteins (incubation in human serum, Sephadex G-50 size exclusion chromatography). The conditions noted are these: 37 °C. It is filed as in vitro ADME. The method, then:
Protein binding was determined by incubation of the radiolabeled peptides in human serum at 37 °C (500 pmol/mL, n = 2). For the time points of 1, 4, and 24 h after incubation, samples of 25 µL were subjected to Sephadex G-50 size exclusion chromatography (GE Healthcare Illustra, Little Chalfont, UK). The column and the eluate were measured using the γ-counter and the percentage of protein binding was calculated.
In general terms: Size exclusion chromatography separates by hydrodynamic size, large species first.

Where two headings read alike, the source gives them in different places. Where a SMILES comes first, the peptide text is derived from it. [ ]: non-standard residue; d: D form. The star is where a group is joined. DOTA = O=C(O)CN1CCN(CC(=O)O)CCN(CC(=O)*)CCN(CC(=O)O)CC1; NMeNle = CCCC[C@H](NC)C(=O)O

For orientation: fraction remaining means what is left of the initial amount, in per cent. Low readings indicate a greater loss, high ones greater stability. For orientation: fraction unbound means free concentration divided by total concentration.

For `CCCC[C@@H](C(=O)N[C@@H](CC(=O)O)C(=O)N(C)[C@@H](Cc1cccc2ccccc12)C(N)=O)N(C)C(=O)[C@H](Cc1c[nH]c2ccccc12)NC(=O)CNC(=O)[C@H](Cc1ccc(O)cc1)NC(=O)[C@H](C)NC(=O)[C@@H](CCC(=O)O)NC(=O)CN1CCN(CC(=O)O)CCN(CC(=O)O)CCN(CC(=O)O)CC1` [[^111In]In-DOTA-[(N-Me)1Nal^8]MGS5, metal not drawn], the fraction remaining at 4 h, 1000 pmol/mL in data set [1] (human, radiolabeled peptide, 4 h after incubation) was 99.3 ± 0.9%. For the same molecule, the share remaining at 24 h, 1000 pmol/mL in data set [1] (radiolabeled peptide (111In where no radiometal named), 24 h after incubation) was 99.6 ± 0.1%. The tissue to tissue ratio at 4 h in data set [2] (A431-CCK2R xenograft / blood, A431-CCK2R xenograft, read-out: tumor-to-organ ratio: blood) worked out at 281 ± 88.5; in data set [2] (A431-CCK2R xenograft / kidney, A431-CCK2R xenograft, read-out: tumor-to-organ ratio: kidney), 7.55 ± 0.48; in data set [2] (A431-CCK2R xenograft / stomach, A431-CCK2R xenograft, read-out: tumor-to-organ ratio: stomach) it was 11.5 ± 1.82. The tissue uptake at 4 h in data set [2] (A431-mock xenograft, read-out: Uptake in A431-mock xenograft) was 0.38 ± 0.08 %ID/g; in data set [2] (blood, read-out: Uptake in blood) it was 0.19 ± 0.07 %ID/g; in data set [2] (heart, read-out: Uptake in heart), 0.14 ± 0.03 %ID/g; in data set [2] (intestine, read-out: Uptake in intestine), 0.81 ± 0.1 %ID/g; in data set [2] (kidneys, read-out: Uptake in kidneys), 6.33 ± 0.89 %ID/g; in data set [2] (liver, read-out: Uptake in liver), 1.39 ± 0.16 %ID/g. Moreover, the tissue uptake at 4 h stood at 0.21 ± 0.07 %ID/g in data set [2] (lung, read-out: Uptake in lung); 0.12 ± 0.05 %ID/g in data set [2] (muscle, read-out: Uptake in muscle); 0.32 ± 0.05 %ID/g in data set [2] (spleen, read-out: Uptake in spleen).

Consider `CCCC[C@@H](C(=O)N[C@@H](CC(=O)O)C(=O)N[C@@H](Cc1ccc2ccccc2c1)C(N)=O)N(C)C(=O)[C@H](Cc1c[nH]c2ccccc12)NC(=O)CNC(=O)[C@H](Cc1ccc(O)cc1)NC(=O)[C@H](C)NC(=O)[C@@H](CCC(=O)O)NC(=O)CN1CCN(CC(=O)O)CCN(CC(=O)O)CCN(CC(=O)O)CC1` [[^111In]In-DOTA-[2Nal^8]MGS5] [metal not drawn], for which, in data set [3], the “Intact radiopeptide in kidney” value is reported as 24.7 ± 0.3%, the “Intact radiopeptide in liver” value came out at 83.9 ± 0.1%, the “Intact radiopeptide in blood” value is 88.4 ± 0.4% and the “Intact radiopeptide in urine” value was 28.2 ± 1.0%.

On to `CCCC[C@@H](C(=O)N[C@@H](CC(=O)O)C(=O)N[C@@H](Cc1cccc2ccccc12)C(=O)NC)N(C)C(=O)[C@H](Cc1c[nH]c2ccccc12)NC(=O)CNC(=O)[C@H](Cc1ccc(O)cc1)NC(=O)[C@H](C)NC(=O)[C@@H](CCC(=O)O)NC(=O)CN1CCN(CC(=O)O)CCN(CC(=O)O)CCN(CC(=O)O)CC1` [[^111In]In-DOTA-MGS5[NHCH3]] [metal not drawn], for which, in data set [3], the “Intact radiopeptide in kidney” value was 7.4 ± 8.6%, the “Intact radiopeptide in liver” value is listed as 78.1 ± 3.7%, the “Intact radiopeptide in blood” value came to 71.7 ± 6.2% and the “Intact radiopeptide in urine” value amounted to 1.3 ± 0.2%.

Consider `CCCC[C@@H](C(=O)N[C@@H](CC(=O)O)C(=O)N[C@@H](Cc1ccccc1)C(N)=O)N(C)C(=O)[C@H](Cc1c[nH]c2ccccc12)NC(=O)CNC(=O)[C@H](Cc1ccc(O)cc1)NC(=O)[C@H](C)NC(=O)[C@@H](CCC(=O)O)NC(=O)CN1CCN(CC(=O)O)CCN(CC(=O)O)CCN(CC(=O)O)CC1` [[^111In]In-DOTA-[Phe^8]MGS5] [metal not drawn] ({DOTA}-[dE]AYGW[NMeNle]DF-NH2), for which the “Binding to Serum Proteins (%)” value in data set [4] (radiolabeled peptide (111In where no radiometal named), 500 pmol/mL, 24 h after incubation, Sephadex G-50, γ-counter, n = 2) was 20%.

Consider `CCCC[C@@H](C(=O)N[C@@H](CC(=O)O)C(=O)N(C)[C@@H](Cc1cccc2ccccc12)C(N)=O)N(C)C(=O)[C@H](Cc1c[nH]c2ccccc12)NC(=O)CNC(=O)[C@H](Cc1ccc(O)cc1)NC(=O)[C@H](C)NC(=O)[C@@H](CCC(=O)O)NC(=O)CN1CCN(CC(=O)O)CCN(CC(=O)O)CCN(CC(=O)O)CC1` [[^177Lu]Lu-DOTA-[(N-Me)1Nal^8]MGS5, metal not drawn], for which the unbound share (fraction unbound) at 4 h, 500 pmol/mL in data set [4] (human, radiolabeled peptide, 4 h after incubation, Sephadex G-50, n = 2) was 0.746. This molecule also gave a fraction unbound at 24 h, 500 pmol/mL in data set [4] (radiolabeled peptide (111In where no radiometal named), 24 h after incubation, Sephadex G-50, γ-counter, n = 2) of 0.713. The tissue uptake at 4 h in data set [2] (A431-CCK2R xenograft, read-out: Uptake in A431-CCK2R xenograft) was 35.1 ± 6.32 %ID/g; in data set [2] (stomach, read-out: Uptake in stomach), 2.37 ± 0.33 %ID/g.
